In patent US8877707B2, “Inhibitors of HCV NS5A” (Presidio Pharmaceuticals, Inc., priority 2010, dated 2014):

test system: HCV genotype 1b replicon in Huh 7 cells; test: HCV replicon assay (1b_Huh-Luc/Neo-ET cell line, luciferase readout); assay type: cell-based; conditions: Hepatitis C virus; Table 1; genotype 1b replicon, Huh 7 cells, 72 h, luciferase; read-out: Inhibition of HCV genotype 1b
In short: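 Huh 7 cells carrying a bicistronic genotype 1b luciferase replicon were treated with compound in triplicate the day after plating and incubated 72 h. Luciferase activity expressed as % of untreated control; EC50 from a four-parameter logistic fit, repeated several times.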

**Q.** `COC(=O)N[C@H](C(=O)N1CCC[C@H]1c1ncc(-c2ccc(-c3cc4ccc(-c5cnc([C@@H]6CCCN6C(=O)[C@@H](NC(=O)OC)C(C)C)[nH]5)cc4cn3)c(F)c2)[nH]1)C(C)C` [compound 150] was tested. Which EC50 did it give?
**A.** < 1 nM

**Q.** For `COC(=O)N[C@H](C(=O)N1CCC[C@H]1c1ncc(-c2ccc3cc(-c4ccc(-c5cnc([C@@H]6CCCN6C(=O)[C@@H](NC(=O)OC)C6CCOCC6)[nH]5)cc4F)ncc3c2)[nH]1)C(C)C` [compound 151], which EC50 is on record?
**A.** < 1 nM

**Q.** With `COC(=O)N[C@H](C(=O)N1CCC[C@H]1c1ncc(-c2ccc3cc(-c4ccc(-c5cnc([C@@H]6CCCN6C(=O)[C@H](NC(=O)OC)c6ccccc6)[nH]5)cc4F)ncc3c2)[nH]1)C(C)C` [compound 152] as the compound, how does the EC50 read?
**A.** < 1 nM

**Q.** How did the EC50 turn out when `COC(=O)N[C@H](C(=O)N1CCC[C@H]1c1ncc(-c2ccc3cc(-c4ccc(-c5cnc([C@@H]6CCCN6C(=O)[C@H](NC(=O)OC6CCOCC6)c6ccccc6)[nH]5)cc4F)ncc3c2)[nH]1)C(C)C` [compound 153] was run?
**A.** < 1 nM

**Q.** How did the EC50 turn out when `COC(=O)N[C@H](C(=O)N1CCC[C@H]1c1ncc(-c2ccc3cc(-c4ccc(-c5cnc([C@@H]6CCCN6C(=O)[C@H](NC(=O)OC6CCOCC6)c6ccccc6)[nH]5)c(F)c4)ncc3c2)[nH]1)C1CCOCC1` [compound 154] was run?
**A.** < 1 nM

**Q.** `COC(=O)N[C@H](C(=O)N1CCC[C@H]1c1ncc(-c2ccc3cc(-c4ccc(-c5cnc([C@@H]6CCCN6C(=O)[C@H](NC(=O)OC)c6ccccc6)[nH]5)c(F)c4)ncc3c2)[nH]1)C(C)C` [compound 155] was tested. Which EC50 did it give?
**A.** < 1 nM

**Q.** With `COC(=O)N[C@H](C(=O)N1CCC[C@H]1c1ncc(-c2ccc(-c3cc4ccc(-c5cnc([C@@H]6CCCN6C(=O)[C@H](NC(=O)OC6CCOCC6)c6ccccc6)[nH]5)cc4cn3)cc2F)[nH]1)C(C)C` [compound 156] as the compound, how does the EC50 read?
**A.** < 1 nM

**Q.** How did the EC50 turn out when `[2H]C([2H])([2H])C([2H])(C([2H])([2H])[2H])[C@@]([2H])(NC(=O)OC)C(=O)N1CCC[C@H]1c1ncc(-c2ccc3nc(-c4ccc(-c5cnc([C@@H]6CCCN6C(=O)[C@@H](NC(=O)OC)C(C)C)[nH]5)cc4F)ccc3c2)[nH]1` [compound 157] was run?
**A.** < 1 nM

**Q.** `[2H]C([2H])([2H])C([2H])(C([2H])([2H])[2H])[C@@]([2H])(NC(=O)OC)C(=O)N1CCC[C@H]1c1ncc(-c2ccc3nc(-c4ccc(-c5cnc([C@@H]6CCCN6C(=O)[C@@H](NC(=O)OC)C6CCOCC6)[nH]5)cc4F)ccc3c2)[nH]1` [compound 158] was tested. Which EC50 did it give?
**A.** < 1 nM

**Q.** `C=CC[C@H](NC(=O)OC)C(=O)N1CCC[C@H]1c1ncc(-c2ccc3nc(-c4ccc(-c5cnc([C@@H]6CCCN6C(=O)[C@@H](NC(=O)OC)C(C)C)[nH]5)cc4F)ccc3c2)[nH]1` [compound 159] was tested. Which EC50 did it give?
**A.** < 1 nM

**Q.** For `C=CC[C@H](NC(=O)OC)C(=O)N1CCC[C@H]1c1ncc(-c2ccc3nc(-c4ccc(-c5cnc([C@@H]6CCCN6C(=O)[C@@H](NC(=O)OC)C6CCOCC6)[nH]5)cc4F)ccc3c2)[nH]1` [compound 160], which EC50 is on record?
**A.** < 1 nM

**Q.** `C#CC[C@H](NC(=O)OC)C(=O)N1CCC[C@H]1c1ncc(-c2ccc3nc(-c4ccc(-c5cnc([C@@H]6CCCN6C(=O)[C@@H](NC(=O)OC)C(C)C)[nH]5)cc4F)ccc3c2)[nH]1` [compound 161] was tested. Which EC50 did it give?
**A.** < 1 nM

**Q.** For `C#CC[C@H](NC(=O)OC)C(=O)N1CCC[C@H]1c1ncc(-c2ccc3nc(-c4ccc(-c5cnc([C@@H]6CCCN6C(=O)[C@@H](NC(=O)OC)C6CCOCC6)[nH]5)cc4F)ccc3c2)[nH]1` [compound 162], which EC50 is on record?
**A.** < 1 nM

**Q.** How did the EC50 turn out when `COC(=O)N[C@H](C(=O)N1CCC[C@H]1c1ncc(-c2ccc(-c3ccc4cc(-c5cnc([C@@H]6CCCN6C(=O)[C@H](NC(=O)OC)C6C=CCC=C6)[nH]5)ccc4n3)c(F)c2)[nH]1)C1CCOCC1` [compound 163] was run?
**A.** < 1 nM

**Q.** Which EC50 does the source give for `COC(=O)NC(C(=O)N1CCC[C@H]1c1ncc(-c2ccc3nc(-c4ccc(-c5cnc([C@@H]6CCCN6C(=O)[C@@H](NC(=O)OC)C6CCOCC6)[nH]5)cc4F)ccc3c2)[nH]1)C1CCOC1` (some centres unmarked) [compound 164] here?
**A.** < 1 nM

**Q.** `COC(=O)N[C@H](C(=O)N1CCC[C@H]1c1ncc(-c2ccc3cc(-c4ccc(-c5cnc([C@@H]6CCCN6C(=O)[C@H](NC(=O)OC)c6ccccc6)[nH]5)cc4F)ncc3c2)[nH]1)C1CCOCC1` [compound 165] was tested. Which EC50 did it give?
**A.** < 1 nM

**Q.** For `COC(=O)N[C@H](C(=O)N1CCC[C@H]1c1ncc(-c2ccc(-c3cc4ccc(-c5cnc([C@@H]6CCCN6C(=O)[C@@H](NC(=O)OC)C6CCOCC6)[nH]5)cc4cn3)c(F)c2)[nH]1)C(C)C` [compound 166], which EC50 is on record?
**A.** < 1 nM

**Q.** How did the EC50 turn out when `COC(=O)N[C@H](C(=O)N1CCC[C@H]1c1ncc(-c2ccc(-c3cc4ccc(-c5cnc([C@@H]6CCCN6C(=O)[C@H](NC(=O)OC)c6ccccc6)[nH]5)cc4cn3)c(F)c2)[nH]1)C(C)C` [compound 167] was run?
**A.** < 1 nM

**Q.** For `COC(=O)N[C@H](C(=O)N1CCOC[C@H]1c1ncc(-c2ccc3cc(-c4ccc(-c5cnc([C@@H]6COCCN6C(=O)[C@H](NC(=O)OC)c6ccccc6)[nH]5)cc4)ccc3c2)[nH]1)C(C)C` [compound 168], which EC50 is on record?
**A.** < 1 nM

**Q.** With `COC(=O)N[C@H](C(=O)N1CCC[C@H]1c1ncc(-c2ccc3cc(-c4ccc(-c5cnc([C@@H]6COCCN6C(=O)[C@H](NC(=O)OC)c6ccccc6)[nH]5)cc4)ccc3c2)[nH]1)C1CCOCC1` [compound 169] as the compound, how does the EC50 read?
**A.** < 1 nM

**Q.** `COC(=O)N[C@H](C(=O)N1CCOC[C@H]1c1ncc(-c2ccc(-c3ccc4cc(-c5cnc([C@@H]6COCCN6C(=O)[C@@H](NC(=O)OC)C(C)C)[nH]5)ccc4c3)cc2)[nH]1)C(C)C` [compound 170] was tested. Which EC50 did it give?
**A.** < 1 nM

**Q.** `CCC(CC)[C@H](NC(=O)OC)C(=O)N1CCC[C@H]1c1ncc(-c2ccc(-c3ccc4cc(-c5cnc([C@@H]6CCCN6C(=O)[C@@H](NC(=O)OC)C(CC)CC)[nH]5)ccc4c3)cc2)[nH]1` [compound 171] was tested. Which EC50 did it give?
**A.** < 1 nM

**Q.** For `COC(=O)N[C@H](C(=O)N1CCC[C@H]1c1ncc(-c2ccc(-c3ccc4cc(-c5cnc([C@@H]6CCCN6C(=O)[C@@H](NC(=O)OC)C6CCCC6)[nH]5)ccc4c3)cc2)[nH]1)C1CCCC1` [compound 172], which EC50 is on record?
**A.** < 1 nM

**Q.** How did the EC50 turn out when `CC[C@H](NC(=O)OC)C(=O)N1CCC[C@H]1c1ncc(-c2ccc(-c3ccc4cc(-c5cnc([C@@H]6CCCN6C(=O)[C@H](CC)NC(=O)OC)[nH]5)ccc4c3)cc2)[nH]1` [compound 173] was run?
**A.** < 1 nM

**Q.** `COC(=O)N[C@H](C(=O)N1CCC[C@H]1c1ncc(-c2ccc3cc(-c4ccc5nc([C@@H]6CCCN6C(=O)[C@@H](NC(=O)OC)C(C)C)[nH]c5c4)ccc3c2)[nH]1)C(C)C` [compound 174] was tested. Which EC50 did it give?
**A.** < 1 nM

**Q.** `COC(=O)N[C@H](C(=O)N1CCC[C@H]1c1ncc(-c2ccc3cc(-c4ccc5nc([C@@H]6CCCN6C(=O)[C@@H](NC(=O)OC)[C@@H](C)O)[nH]c5c4)ccc3c2)[nH]1)[C@@H](C)O` [compound 175] was tested. Which EC50 did it give?
**A.** < 1 nM

**Q.** How did the EC50 turn out when `COC(=O)N[C@H](C(=O)N1CCC[C@H]1c1ncc(-c2ccc3cc(-c4ccc5nc([C@@H]6CCCN6C(=O)[C@@H](NC(=O)OC)[C@@H](C)OC)[nH]c5c4)ccc3c2)[nH]1)[C@@H](C)OC` [compound 176] was run?
**A.** < 1 nM

**Q.** With `COC(=O)N[C@H](C(=O)N1CCC[C@H]1c1ncc(-c2ccc3cc(-c4ccc5nc([C@@H]6CCCN6C(=O)[C@@H](c6ccccc6)N(C)C)[nH]c5c4)ccc3c2)[nH]1)C(C)C` [compound 177] as the compound, how does the EC50 read?
**A.** < 1 nM

**Q.** With `COC(=O)N[C@H](C(=O)N1CCC[C@H]1c1nc2ccc(-c3ccc4cc(-c5cnc([C@@H]6CCCN6C(=O)[C@@H](c6ccccc6)N6CCCC6)[nH]5)ccc4c3)cc2[nH]1)C(C)C` [compound 178] as the compound, how does the EC50 read?
**A.** < 1 nM

**Q.** `COC(=O)N[C@H](C(=O)N1CCC[C@H]1c1nc2ccc(-c3ccc4cc(-c5cnc([C@@H]6CCCN6C(=O)[C@H](NC(=O)OC)c6ccccc6)[nH]5)ccc4c3)cc2[nH]1)C(C)C` [compound 179] was tested. Which EC50 did it give?
**A.** < 1 nM

**Q.** Which EC50 does the source give for `COC(=O)N[C@H](C(=O)N1CCC[C@H]1c1ncc(-c2ccc3cc(-c4ccc5nc([C@@H]6CCCN6C(=O)[C@@H](c6ccccc6)N6CCCC6)[nH]c5c4)ccc3c2)[nH]1)C(C)C` [compound 180] here?
**A.** < 1 nM

**Q.** For `COC(=O)N[C@H](C(=O)N1CCC[C@H]1c1ncc(-c2ccc3cc(-c4ccc5nc([C@@H]6CCCN6C(=O)[C@H](NC(=O)OC)c6ccccc6)[nH]c5c4)ccc3c2)[nH]1)C(C)C` [compound 181], which EC50 is on record?
**A.** < 1 nM

**Q.** For `COC(=O)N[C@H](C(=O)N1CCC[C@H]1c1nc2ccc(-c3ccc4cc(-c5cnc([C@@H]6CCCN6C(=O)[C@@H](c6ccccc6)N(C)C)[nH]5)ccc4c3)cc2[nH]1)C(C)C` [compound 182], which EC50 is on record?
**A.** < 1 nM

**Q.** Which EC50 does the source give for `COC(=O)N[C@H](C(=O)N1CCC[C@H]1c1nc2ccc(-c3ccc4cc(-c5cnc([C@@H]6CCCN6C(=O)[C@H](NC(=O)N6CC[C@H](O)C6)c6ccccc6)[nH]5)ccc4c3)cc2[nH]1)C(C)C` [compound 183] here?
**A.** < 1 nM

**Q.** How did the EC50 turn out when `COC(=O)N[C@H](C(=O)N1CCC[C@H]1c1ncc(-c2ccc3cc(-c4ccc5nc([C@@H]6CCCN6C(=O)[C@H](NC(=O)N6CC[C@H](O)C6)c6ccccc6)[nH]c5c4)ccc3c2)[nH]1)C(C)C` [compound 185] was run?
**A.** < 1 nM

**Q.** With `CNC(=O)N[C@@H](C(=O)N1CCC[C@H]1c1ncc(-c2ccc3cc(-c4ccc5nc([C@@H]6CCCN6C(=O)[C@@H](NC(=O)OC)C(C)C)[nH]c5c4)ccc3c2)[nH]1)c1ccccc1` [compound 186] as the compound, how does the EC50 read?
**A.** < 1 nM

**Q.** `COC(=O)N[C@H](C(=O)N1CCC[C@H]1c1ncc(-c2cnc3cc(-c4ccc5nc([C@@H]6CCCN6C(=O)[C@@H](NC(=O)OC)C(C)C)[nH]c5c4)ccc3c2)[nH]1)C(C)C` [compound 187] was tested. Which EC50 did it give?
**A.** < 1 nM

**Q.** For `COC(=O)N[C@H](C(=O)N1CCC[C@H]1c1ncc(-c2cnc3cc(-c4ccc5nc([C@@H]6CCCN6C(=O)[C@H](NC(=O)OC)c6ccccc6)[nH]c5c4)ccc3c2)[nH]1)C(C)C` [compound 188], which EC50 is on record?
**A.** 1 to 9.9 nM

**Q.** For `COC(=O)N[C@H](C(=O)N1CCC[C@H]1c1ncc(-c2ccc3cc(-c4ccc5nc([C@@H]6CCCN6C(=O)[C@@H](NC(=O)OC)C6CCOCC6)[nH]c5c4)ccc3c2)[nH]1)C(C)C` [compound 189], which EC50 is on record?
**A.** < 1 nM

**Q.** For `COC(=O)N[C@H](C(=O)N1CCC[C@H]1c1nc2ccc(-c3ccc4cc(-c5cnc([C@@H]6CCCN6C(=O)[C@@H](NC(=O)OC)C6CCOCC6)[nH]5)ccc4c3)cc2[nH]1)C(C)C` [compound 190], which EC50 is on record?
**A.** < 1 nM

**Q.** With `COC(=O)N[C@H](C(=O)N1CCC[C@H]1c1nc2ccc(-c3ccc4cc(-c5cnc([C@@H]6CCCN6C(=O)[C@@H](NC(=O)OC)C6CCOCC6)[nH]5)cnc4c3)cc2[nH]1)C(C)C` [compound 191] as the compound, how does the EC50 read?
**A.** < 1 nM
